Counter-ions that a name gives are not always drawn.
biological target: T1, human EP4 (hEP4) receptor (Homo sapiens, UniProt P35408); assay: In vitro human EP4 functional antagonist activity using BRET biosensors (cAMP EPAC biosensor, TCS2510 stimulation); assay type: cell-based; details: antagonist activity vs EC60 TCS2510, hEP4 in HEK-293 T cells
T1 construct: expressed in transfected cells; host or cells: HEK-293 T cells, transient co-transfection with polyethylenimine
Experimental: Examples of the present invention were tested successively for their agonist and antagonist activities on human EP4 (hEP4) receptor transiently over-expressed in HEK-293 T cells. […] The assay used to measure compound activity is based on the BRET technology. The unimolecular cAMP biosensor used to detect intracellular cAMP levels following GPCR stimulation consists of the EPAC protein fused to N- and C-terminal of Luciferase and GFP respectively.
Cell Culture and Transfection: HEK-293 T cells are maintained in Dulbecco's Modified Eagle's Medium supplemented with 10% Foetal Calf Serum, 1% Penicillin/Streptomycin at 37° C./5% CO2. Cells are co-transfected using polyethylenimine (25 kDa linear) with two DNA plasmids encoding hEP4, EPAC fused to luciferase (BRET donor) and to GFP (BRET acceptor). After transfection, cells are cultured (40,000 cells per well) for 48 h at 37° C./5% CO2.
BRET assay: Receptor activity is detected by changes in BRET signal. On the day of the assay, cells are rinsed and incubated in assay buffer (1.8 mM CaCl2, 1 mM MgCl2, 2.7 mM KCl, 137 mM NaCl, 0.4 mM NaH2PO4, 5.5 mM D-Glucose, 11.9 mM NaHCO3, 25 mM Hepes). Then, plates are equilibrated 1 h at 22° C. before adding compounds. Compounds and luciferase substrate are added to the cells using an automated device (Freedom Evo®, Tecan) and BRET readings are collected on EnVision (PerkinElmer) with specific filters (410 nm BW 80 nm, 515 nm BW 30 nm). Agonist and antagonist activities of compounds are consecutively evaluated on the same cell plate. Agonist activity is first measured after 5 min incubation with compound alone on the cells. Then, cells are stimulated by an EC60 TCS2510 concentration and luminescence is recorded for additional 10 min. EC60 TCS2510 concentration is the concentration giving 60% of the maximal TCS2510 response. Agonist or antagonist activities are evaluated in comparison to basal signals evoked by assay buffer or EC60 TCS2510 alone, respectively.
For IC50 determination, a dose-response test is performed using 10 concentrations (ranging over 4.5 logs) of each compound. Dose-response curves are fitted using the sigmoidal dose-response (variable slope) analysis in GraphPad Prism software (GraphPad Software) and IC50 of antagonist activity is calculated. Dose-response experiments are performed in duplicate, in two independent experiments. IC50 values are categorized as following: A: IC50<0.1 μM; B: IC50<1 μM.

T1 sequence (P35408 whole entry): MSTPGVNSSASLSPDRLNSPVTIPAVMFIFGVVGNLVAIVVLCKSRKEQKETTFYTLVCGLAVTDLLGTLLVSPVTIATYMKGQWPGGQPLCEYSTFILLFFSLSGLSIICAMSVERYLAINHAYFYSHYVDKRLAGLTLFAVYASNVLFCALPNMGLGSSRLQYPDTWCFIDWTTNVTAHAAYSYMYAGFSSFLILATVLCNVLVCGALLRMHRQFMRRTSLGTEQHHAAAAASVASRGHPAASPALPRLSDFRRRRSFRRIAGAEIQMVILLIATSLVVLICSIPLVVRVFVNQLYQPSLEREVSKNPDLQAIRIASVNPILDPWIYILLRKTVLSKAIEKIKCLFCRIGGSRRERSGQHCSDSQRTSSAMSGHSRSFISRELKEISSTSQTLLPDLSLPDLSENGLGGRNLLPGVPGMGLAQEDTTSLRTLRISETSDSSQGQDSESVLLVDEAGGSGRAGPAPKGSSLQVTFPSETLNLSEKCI

Row | Compound | IC50
1 | Cc1cccc(OCCN(C)C2(C(=O)NC3(c4ccc(C(=O)O)cc4)CC3)CCOCC2)c1 [Example 35, 4-[1-[[4-[2-(3-Methylphenoxy)ethyl-methyl-amino]tetrahydropyran-4-carbonyl]amino]cyclopropyl]benzoic acid, hydrochloride] | < 100 nM
2 | Cc1ccccc1OCCN(C)C1(C(=O)NC2(c3ccc(C(=O)O)cc3)CC2)CCOCC1 [Example 36, 4-[1-[[4-[2-(2-Methylphenoxy)ethyl-methyl-amino]tetrahydropyran-4-carbonyl]amino]cyclopropyl]benzoic acid, hydrochloride] | < 100 nM
3 | Cc1ccc(OCCN(C)C2(C(=O)NC3(c4ccc(C(=O)O)cc4)CC3)CCOCC2)cc1 [Example 37, 4-[1-[[4-[2-(4-Methylphenoxy)ethyl-methyl-amino]tetrahydropyran-4-carbonyl]amino]cyclopropyl]benzoic acid, hydrochloride] | < 1000 nM
4 | COc1cccc(OCCN(C)C2(C(=O)NC3(c4ccc(C(=O)O)cc4)CC3)CCOCC2)c1 [Example 38, 4-[1-[[4-[2-(3-Methoxyphenoxy)ethyl-methyl-amino]tetrahydropyran-4-carbonyl]amino]cyclopropyl]benzoic acid, hydrochloride] | < 100 nM
5 | COc1ccccc1OCCN(C)C1(C(=O)NC2(c3ccc(C(=O)O)cc3)CC2)CCOCC1 [Example 39, 4-[1-[[4-[2-(2-Methoxyphenoxy)ethyl-methyl-amino]tetrahydropyran-4-carbonyl]amino]cyclopropyl]benzoic acid, hydrochloride] | < 1000 nM
6 | COc1ccc(OCCN(C)C2(C(=O)NC3(c4ccc(C(=O)O)cc4)CC3)CCOCC2)cc1 [Example 40, 4-[1-[[4-[2-(4-Methoxyphenoxy)ethyl-methyl-amino]tetrahydropyran-4-carbonyl]amino]cyclopropyl]benzoic acid, hydrochloride] | < 1000 nM
7 | CN(CCOc1cccc(C(F)(F)F)c1)C1(C(=O)NC2(c3ccc(C(=O)O)cc3)CC2)CCOCC1 [Example 41, 4-[1-[[4-[2-(3-Trifluoromethylphenoxy)ethyl-methyl-amino]tetrahydropyran-4-carbonyl]amino]cyclopropyl]benzoic acid, hydrochloride] | < 100 nM
8 | CN(CCOc1ccccc1C(F)(F)F)C1(C(=O)NC2(c3ccc(C(=O)O)cc3)CC2)CCOCC1 [Example 42, 4-[1-[[4-[2-(2-Trifluoromethylphenoxy)ethyl-methyl-amino]tetrahydropyran-4-carbonyl]amino]cyclopropyl]benzoic acid, hydrochloride] | < 1000 nM
9 | CN(CCOc1cccc(OC(F)(F)F)c1)C1(C(=O)NC2(c3ccc(C(=O)O)cc3)CC2)CCOCC1 [Example 43, 4-[1-[[4-[2-(3-Trifluoromethoxyphenoxy)ethyl-methyl-amino]tetrahydropyran-4-carbonyl]amino]cyclopropyl]benzoic acid, hydrochloride] | < 100 nM
10 | CN(CCOc1ccccc1OC(F)(F)F)C1(C(=O)NC2(c3ccc(C(=O)O)cc3)CC2)CCOCC1 [Example 44, 4-[1-[[4-[2-(2-Trifluoromethoxyphenoxy)ethyl-methyl-amino]tetrahydropyran-4-carbonyl]amino]cyclopropyl]benzoic acid, hydrochloride] | < 100 nM
11 | CN(CCOc1ccc(OC(F)(F)F)cc1)C1(C(=O)NC2(c3ccc(C(=O)O)cc3)CC2)CCOCC1 [Example 45, 4-[1-[[4-[2-(4-Trifluoromethoxyphenoxy)ethyl-methyl-amino]tetrahydropyran-4-carbonyl]amino]cyclopropyl]benzoic acid, hydrochloride] | < 1000 nM
12 | CN(CCOc1cccc(C#N)c1)C1(C(=O)NC2(c3ccc(C(=O)O)cc3)CC2)CCOCC1 [Example 46, 4-[1-[[4-[2-(3-Cyanophenoxy)ethyl-methyl-amino]tetrahydropyran-4-carbonyl]amino]cyclopropyl]benzoic acid, hydrochloride] | < 1000 nM
13 | CN(CCOc1ccccc1)C1(C(=O)NC2(c3ccc(C(=O)O)c(F)c3)CC2)CCOCC1 [Example 49, 2-Fluoro-4-[1-[[4-[methyl(2-phenoxyethyl)amino]tetrahydropyran-4-carbonyl]amino]cyclopropyl]benzoic acid, hydrochloride] | < 1000 nM
14 | CN(CCOc1ccccc1)C1(C(=O)NC2(c3ccc(C(=O)O)cc3F)CC2)CCOCC1 [Example 50, 3-Fluoro-4-[1-[[4-[methyl(2-phenoxyethyl)amino]tetrahydropyran-4-carbonyl]amino]cyclopropyl]benzoic acid, hydrochloride] | < 100 nM
15 | CN(CCOc1ccccc1)C1(C(=O)NC2(c3ccc(C(=O)O)c(Cl)c3)CC2)CCOCC1 [Example 51, 2-Chloro-4-[1-[[4-[methyl(2-phenoxyethyl)amino]tetrahydropyran-4-carbonyl]amino]cyclopropyl]benzoic acid, hydrochloride] | < 1000 nM
16 | CN(CCOc1ccccc1)C1(C(=O)NC2(c3ccc(C(=O)O)cc3Cl)CC2)CCOCC1 [Example 52, 3-Chloro-4-[1-[[4-[methyl(2-phenoxyethyl)amino]tetrahydropyran-4-carbonyl]amino]cyclopropyl]benzoic acid, hydrochloride] | < 100 nM
17 | CN(CCOc1ccccc1)C1(C(=O)NC2(c3ccc(C(=O)O)nc3)CC2)CCOCC1 [Example 53, 5-[1-[[4-[Methyl(2-phenoxyethyl)amino]tetrahydropyran-4-carbonyl]amino]cyclopropyl]pyridine-2-carboxylic acid, hydrochloride] | < 1000 nM
18 | CN(CCOc1ccccc1)C1(C(=O)NC2(c3ccc(C(=O)O)cn3)CC2)CCOCC1 [Example 54, 6-[1-[[4-[Methyl(2-phenoxyethyl)amino]tetrahydropyran-4-carbonyl]amino]cyclopropyl]pyridine-3-carboxylic acid, hydrochloride] | < 1000 nM
19 | C[C@H](NC(=O)C1(NCCOc2ccccc2)CCCCC1)c1ccc(C(=O)O)cc1 [Example 55, 4-[(1S)-1-[[1-(2-Phenoxyethylamino)cyclohexanecarbonyl]amino]ethyl]benzoic acid, hydrochloride] | < 1000 nM
20 | C[C@H](NC(=O)C1(NCCOc2cccc(Cl)c2)CCCCC1)c1ccc(C(=O)O)cc1 [Example 56, 4-[(1S)-1-[[1-[2-(3-Chlorophenoxy)ethylamino]cyclohexanecarbonyl]amino]ethyl]benzoic acid, hydrochloride] | < 100 nM
21 | C[C@H](NC(=O)C1(N(C)CCOc2cccc(Cl)c2)CCCCC1)c1ccc(C(=O)O)cc1 [Example 57, 4-[(1S)-1-[[1-[2-(3-Chlorophenoxy)ethyl-methyl-amino]cyclohexanecarbonyl]amino]ethyl]benzoic acid, hydrochloride] | < 100 nM
22 | Cc1cccc(OCCNC2(C(=O)N[C@@H](C)c3ccc(C(=O)O)cc3)CCCCC2)c1 [Example 58, 4-[(1S)-1-[[1-[2-(3-Methylphenoxy)ethylamino]cyclohexanecarbonyl]amino]ethyl]benzoic acid, hydrochloride] | < 100 nM
23 | Cc1cccc(OCCN(C)C2(C(=O)N[C@@H](C)c3ccc(C(=O)O)cc3)CCCCC2)c1 [Example 59, 4-[(1S)-1-[[1-[Methyl-[2-(3-methylphenoxy)ethyl]amino]cyclohexanecarbonyl]amino]ethyl]benzoic acid, hydrochloride] | < 100 nM
24 | COc1cccc(OCCN(C)C2(C(=O)N[C@@H](C)c3ccc(C(=O)O)cc3)CCCCC2)c1 [Example 60, 4-[(1S)-1-[[1-[2-(3-Methoxyphenoxy)ethyl-methyl-amino]cyclohexanecarbonyl]amino]ethyl]benzoic acid, hydrochloride] | < 100 nM
25 | C[C@H](NC(=O)C1(NCCOc2ccccc2)CCCC1)c1ccc(C(=O)O)cc1 [Example 61, 4-[(1S)-1-[[1-(2-Phenoxyethylamino)cyclopentanecarbonyl]amino]ethyl]benzoic acid, hydrochloride] | < 100 nM
26 | C[C@H](NC(=O)C1(N(C)CCOc2ccccc2)CCCC1)c1ccc(C(=O)O)cc1 [Example 62, 4-[(1S)-1-[[1-[Methyl(2-phenoxyethyl)amino]cyclopentanecarbonyl]amino]ethyl]benzoic acid, hydrochloride] | < 100 nM
27 | C[C@H](NC(=O)C1(NCCOc2cccc(Cl)c2)CCCC1)c1ccc(C(=O)O)cc1 [Example 63, 4-[(1S)-1-[[1-[2-(3-Chlorophenoxy)ethylamino]cyclopentanecarbonyl]amino]ethyl]benzoic acid, hydrochloride] | < 100 nM

Reference: patent US12527779B2, “Prostaglandin E2 (PGE2) EP4 receptor antagonists” (Domain Therapeutics, priority 2019, dated 2026)
